Results from US7348305B2, “Inhibitor of cardiac tachyarrhythmias” (Department of Veterans Affairs, Rehabilitation, priority 2003, dated 2008).

Experiments:
[1] = Side effects of IV injection in dogs; format: in vivo, dog; settings: 2 mg/kg IV into a forepaw vein at 24-hr and 1-hr prior to LAD ligation
Method: Anti-TNFα Treatment: A dosage of 2 mg/kg hTNFR:Fc (supplied as etanercept, Amgen, Inc, Thousand Oaks, Calif.) or saline were injected IV into a forepaw vein at 24-hr and again 1-hr prior to LAD ligation. […] This dosage was used after consultation with the pharmaceutical corporate pharmacology section and based on unpublished internal data that this dosage would provide maximal sequestration of tissue and circulating TNFα.

[2] = test system: β-adrenergic receptor kinase (βARK); test: βARK immunoblot of EBZ tissue 24 hr after LAD ligation (Model 1); format: in vivo, dog; settings: 24 hr after LAD ligation
Method: βARK immunoblots were used to estimate βARK expression (Yu et al., 2000).
Western Blot Analysis: Assessment of βARK content was conducted using standard SDS-PAGE and immunoblot techniques. Samples containing 100 μg of protein from myocardial extracts were electrophoresed using 10% SDS-PAGE and transferred to nitrocellulose membranes. The membrane was incubated with monoclonal anti-βARK (Upstate Biotechnology, Inc, Lake Placid, N.Y.), followed by exposure to peroxidase-linked anti-mouse IgG. Antibody binding was detected by a chemiluminescent method (ECL, Amersham Biosciences Corp, Piscataway, N.J.). Quantification of immunoreactive proteins was performed by densitometric scanning and with Image QuaNT software (Molecular Dynamics).
β-ARK, Proteasome and Ubiquitin Expression Assays: β-ARK, ubiquitinated β-ARK and proteasome in EBZ and RS tissues was determined by Western blot analysis. Samples were adjusted after protein concentration was assayed (BCA, Pierce Chemicals) to provide identical loads. 100 μg protein was combined with equal volume of SDS sample buffer, and electrophoresed on a 10% polyacrylamide gel. The blocked membranes were incubated with mouse anti β-ARK monoclonal antibody (Santa Cruz Biotechnology, Santa Cruz, Calif.) for 1-h at room temperature followed by anti-mouse IgG coupled to horseradish peroxidase and developed using an ECL western blotting kit (Amersham). The bands were scanned, stripped and reprobed with mouse anti-ubiquitin antibody (Santa Cruz Biotechnology, Santa Cruz, Calif.). The membrane was rescanned, stripped a second time and reprobed with rabbit anti-proteasome 20S C2 subunit polyclonal antibody (A.G. Scientific, Inc. CA). A separate control gel was included that was similarly treated, but reprobed with the identical Ab and band quality and density compared to the previous data obtained before stripping. Quantitation of immunoreactive bands was performed by densitometric scanning using ImageQuant software (Molecular Dynamics).

myocardial infarct = test: Model 2: 2-hr LAD occlusion/4-hr reperfusion, infarct size; format: in vivo, dog
Method: Model 2: Acute changes in infarct size. Seventeen 15-22 kg male mongrel dogs were anesthetized and respired as described above. Body temperature was maintained using a temperature-controlled operative table bed and fluid replacement. Two EKG leads (L-II and V-3) and arterial pressure (left femoral) were continuously monitored during the experiment. […] After 4 hours of reperfusion, the heart was removed and rinsed with room-temperature Tyrode's solution. Cannulae were placed into the proximal aorta and into the LAD artery at the site of occlusion for perfusion with Evans blue (0.1%) and TTZ (0.1%), respectively, at equal pressure (80 mmHg). The area at risk of infarction was delineated by its red color (surviving myocardium) or a pale color (infarct) with the remaining heart stained by Evan's blue. The heart was then sliced to provide a 5 mm thick section parallel to the AV groove. After storage overnight in buffered formalin, infarcted tissue, surviving myocardium within the anatomic area at risk of infarction, and left ventricle outside the area at risk of infarction were separated using a scalpel blade. Infarct mass, area at risk of infarction, left ventricular mass, and total heart mass were determined gravimetrically. Anti-TNFα Treatment: A dosage of 2 mg/kg hTNFR:Fc (supplied as etanercept, Amgen, Inc, Thousand Oaks, Calif.) or saline were injected IV into a forepaw vein at 24-hr and again 1-hr prior to LAD ligation. […] This dosage was used after consultation with the pharmaceutical corporate pharmacology section and based on unpublished internal data that this dosage would provide maximal sequestration of tissue and circulating TNFα.

congestive heart failure = settings: cited from earlier work
[3] = test system: myeloperoxidase (MPO) activity; test: Leukocyte infiltration by myeloperoxidase (MPO) activity, Model 2; format: in vivo, dog; settings: etanercept pretreated
Method: Calculated Oxygen Requirement and Leukocyte Infiltration: The animal's oxygen requirement was estimated by calculation of the double product (heart rate x mean arterial pressure). The myocardial activity of myeloperoxidase (MPO), an enzyme occurring virtually exclusively in neutrophils, was determined by using a modification of the method of Bradley (Mullane et al., 1985). Change in absorbance was measured spectrophotometrically in the supernatants of homogenized myocardium. One unit of MPO is defined as the quantity of enzyme hydrolyzing […] of peroxide per minute at 25° C.

[4] = etanercept pretreated, 2-hr occlusion/4-hr reperfusion

Substance: etanercept
- side effects of the injection [1]: No side effects
- βARK in EBZ as percentage of unoperated control tissue ([2]; etanercept 2 mg/kg pretreated, immunoblot, n=5, saline 4.3%): 33.8±7.2%
- salvage of βARK in EBZ tissue compared to saline control ([2]; etanercept pretreated): 8 fold
- decrease in infarct size (% area at risk) compared to saline (myocardial infarct; [4]): 61%
- decrease in infarct size (% left ventricular mass) compared to saline (myocardial infarct; [4]): 54%
- infarct size, % left ventricular mass (LV) (myocardial infarct; etanercept pretreated, 2-hr occlusion/4-hr reperfusion, n=8, saline 13±1): 6±1 % LV
- infarct size, % area at risk (AR) (myocardial infarct; etanercept pretreated, 2-hr occlusion/4-hr reperfusion, n=8, saline 38±6): 15±2 % AR
- reduction of infarct size expressed as % left ventricular mass or % area at risk (myocardial infarct; etanercept pretreatment, Model 2, approximate summary): approximately 50%
- benefit upon functional status or survival in congestive heart failure (congestive heart failure; human clinical trials (Anker et al., 2002)): no significant benefits
- safety of administration in patients with heart failure (congestive heart failure; human, in vivo): safe
- leukocyte infiltration, myeloperoxidase ratio of ischemic to normal tissue ([3]; Model 2, n=7, saline 11±2.6): 1.8±0.2
- decrease in leukocyte accumulation within ischemically injured myocardium ([3]; Model 2, versus saline): 9 fold
